Experimental data published in patent publication US20260344668A1, “PHENYLPYRAZOLE COMPOUND, AND PLANT DISEASE CONTROL METHOD” (priority 2022, published 2026).

Columns and labels:
[1] = tested on: Phakopsora pachyrhizi; experiment: Test Example 16 Control Test Against Soybean Rust Fungus (spore germination, petri dish); assay type: cell-based; conditions: treatment concentration 10 ppm, 23° C., 1 day
Procedure: (§1) The term of “non-treated well” in Test Example 4, Test Example 5, and Test Example 6 represents a well wherein a test was carried out under the same conditions as those described in each Test Example except for dispensing DMSO instead of a diluted solution with DMSO comprising the Present compound. Also, the term of “non-treated” in Test Examples 15 to 17 represents a test which was carried out under the same conditions as those described in each Test Example except for dispensing DMSO instead of a diluted solution with DMSO comprising the Present compound. Also, the term of “non-treated leaf disk” in Test Example 7 represents a leaf disk wherein a test was carried out under the same conditions as those described in the Test Example except for dispensing DMSO instead of a diluted solution with DMSO comprising the Present compound. Also, the term of “non-treated” in Test Example 10 and Test Example 11 means that a diluted solution with water of a formulation comprising the Present compound was not sprayed.
An agar medium (agar concentration: 1.0%) (3 mL) was placed in a plastic petri dish having a diameter of 3.5 cm, and solidified. Each Present compound was diluted with DMSO in such a way that the resulting diluted solution containing 10000 ppm of the compound, and said solution (1 μL) and an aqueous suspension (1.0×10^4/mL) (999 μL) of spores of Phakopsora pachyrhizi to which spores of Phakopsora pachyrhizi were suspended were mixed, and then the resulting mixture was dispensed into the plastic petri dish. This plastic petri dish was cultured at 23° C. for 1 day, and then germinated spores of Phakopsora pachyrhizi were counted. As a result, when the treatment concentration was 10 ppm, and any one of the Present compound 9, 10, 28, 29, or 32 was used as the test compound to carry out the test, the number of germinated spores in each plastic petri dish using the above each Present compound as the test compound was 50% or less relative to the number of germinated spores in the non-treated plastic petri dish.

[2] = tested on: soybean rust fungus (Phakopsora pachyrhizi) having an amino acid substitution of F129L in a mitochondrial cytochrome b protein; experiment: Test Example 7 Control Test Against Soybean Rust (leaf disk); assay type: in vivo; conditions: 200 ppm, 10 μL per soybean leaf disk (cultivar: Kurosengoku), inoculated after 1 day
In short: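 Soybean (Kurosengoku) leaf disks of 1 cm on 1.2% agar were sprayed with compound in a DMSO/xylene/Sorpol emulsion diluted in water to a prescribed concentration. One day later they were spray-inoculated with F129L cytochrome b mutant P. pachyrhizi spores (1.0×10^5/mL) and kept at 23 °C, 60% humidity, 6 h light, for about 13 days. Lesion area was compared with DMSO-treated disks.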

[3] = tested on: Cochliobolus miyabeanus; experiment: Test Example 6 Control Test Against Rice Brown Spot Fungus (96 well titer plate growth); assay type: cell-based; conditions: 1 μL of 150 ppm DMSO solution + 150 μL YB liquid medium, 23° C., 3 days, absorbance at 550 nm
Procedure: as §1
Each of the Present compound 17, 33, 36, 37, 39, 40, 41, 42, 43, 44, 48, 49, 50, 51, 52, 53, 62, 68, 69, 70, 71, 76, 77, 79, 80, 81, 82, 83, 84, or 97 was diluted with DMSO to obtain a diluted solution containing 150 ppm of each compound, and 1 μL of the diluted solution was dispensed into a titer plate (96 well), and thereto was then dispensed 150 μL of a YB liquid medium to which spores of Cochliobolus miyabeanus were inoculated in advance. This plate was cultured at 23° C. for 3 days, thereby allowing Cochliobolus miyabeanus to undergo proliferation, and the absorbance at 550 nm of each well of the titer plate was then measured to determine a degree of growth of Cochliobolus miyabeanus. As a result, the degree of growth in the well treated with each of the above Present compounds was 50% or less relative to the degree of growth in the non-treated well.

[4] = tested on: Phakopsora pachyrhizi; experiment: Test Example 15 Control Test Against Soybean Rust Fungus (spore germination, 96 well titer plate); assay type: cell-based; conditions: treatment concentration 1 ppm, 23° C., several hours
In short: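 Compound in DMSO was added to an aqueous Phakopsora pachyrhizi spore suspension (1.0×10^4/mL) and incubated several hours at 23° C. Germinated spores were counted relative to DMSO-only wells.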

[5] = tested on: Phakopsora pachyrhizi; experiment: Test Example 11 Control Test Against Soybean Rust (pot test, spraying before inoculation); assay type: in vivo; conditions: 200 ppm foliage spray, soybeans (Kurosengoku), inoculated after 2 to 5 days
In short: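 Soybeans (cv. Kurosengoku), grown 10–14 days in pots, foliar-sprayed with formulated compound at 200 ppm, inoculated 2–5 days later with Phakopsora pachyrhizi spores. Kept humid 1–2 days at 23 °C day/20 °C night, then greenhouse 12 days; lesion area scored against unsprayed plants.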

[6] = tested on: Cladosporium carpophilum; experiment: Test Example 5 Control Test Against Peach Scab Fungus (96 well titer plate growth); assay type: cell-based; conditions: 1 μL of 150 ppm DMSO solution + 150 μL PDB medium, 18° C., 5 days, absorbance at 550 nm
Procedure: as §1
Each of the Present compound 79, 80, 81, 89, 92, 93, 96, or 99 was diluted with DMSO to obtain a diluted solution containing 150 ppm of each compound, and 1 μL of the diluted solution was dispensed into a titer plate (96 well), and thereto was then dispensed 150 μL of a potato dextrose broth medium (PDB medium) to which spores of Cladosporium carpophilum were inoculated in advance. This plate was cultured at 18° C. for 5 days, thereby allowing Cladosporium carpophilum to undergo proliferation, and the absorbance at 550 nm of each well of the titer plate was then measured to determine a degree of growth of Cladosporium carpophilum. As a result, the degree of growth in the well treated with each of the above Present compound was 50% or less relative to the degree of growth in the non-treated well.

| Compound | number of germinated spores relative to the non-treated plastic petri dish [1] [%] | lesion area relative to the lesion area of non-treated leaf disk [2] [%] | degree of growth relative to the degree of growth in the non-treated well [3] [%] | number of germinated spores relative to the non-treated well [4] [%] | lesion area relative to the lesion area in the non-treated soybeans [5] [%] | degree of growth relative to the degree of growth in the non-treated well [6] [%] |
| --- | --- | --- | --- | --- | --- | --- |
| Cc1ccc(S(=O)(=O)n2ccc(-c3cccc(F)c3)n2)cc1 [compound 28] | ≤ 50 | – | – | – | – | – |
| O=S(=O)(c1cccs1)n1ccc(-c2ccc3nsnc3c2)n1 [compound 68] | – | ≤ 30 | ≤ 50 | ≤ 50 | ≤ 30 | – |
| Cc1ccc(-c2ccn(S(=O)(=O)c3ccco3)n2)cc1F [compound 69] | – | ≤ 30 | ≤ 50 | ≤ 50 | ≤ 30 | – |
| Cc1ccc(-c2ccn(S(=O)(=O)c3ccoc3)n2)cc1F [compound 70] | – | ≤ 30 | ≤ 50 | ≤ 50 | ≤ 30 | – |
| Cc1ccc(-c2ccn(S(=O)(=O)c3cccs3)n2)cc1F [compound 71] | – | ≤ 30 | ≤ 50 | ≤ 50 | ≤ 30 | – |
| Cc1ccc(-c2ccn(S(=O)(=O)c3ccco3)n2)cc1 [compound 76] | – | ≤ 30 | ≤ 50 | ≤ 50 | ≤ 30 | – |
| Cc1ccc(-c2ccn(S(=O)(=O)c3ccoc3)n2)cc1 [compound 77] | – | ≤ 30 | ≤ 50 | ≤ 50 | ≤ 30 | – |
| O=S(=O)(c1ccco1)n1ccc(-c2ccc(Cl)cc2)n1 [compound 79] | – | ≤ 30 | ≤ 50 | ≤ 50 | ≤ 30 | ≤ 50 |
| O=S(=O)(c1ccoc1)n1ccc(-c2ccc(Cl)cc2)n1 [compound 80] | – | ≤ 30 | ≤ 50 | ≤ 50 | ≤ 30 | ≤ 50 |
| O=S(=O)(c1cccs1)n1ccc(-c2ccc(Cl)cc2)n1 [compound 81] | – | ≤ 30 | ≤ 50 | ≤ 50 | ≤ 30 | ≤ 50 |
| O=S(=O)(c1ccco1)n1ccc(-c2ccc(I)cc2)n1 [compound 82] | – | ≤ 30 | ≤ 50 | ≤ 50 | ≤ 30 | – |
| O=S(=O)(c1ccoc1)n1ccc(-c2ccc(I)cc2)n1 [compound 83] | – | ≤ 30 | ≤ 50 | ≤ 50 | ≤ 30 | – |
| O=S(=O)(c1cccs1)n1ccc(-c2ccc(I)cc2)n1 [compound 84] | – | ≤ 30 | ≤ 50 | ≤ 50 | ≤ 30 | – |
| O=S(=O)(c1ccoc1)n1ccc(-c2ccc(F)cc2)n1 [compound 89] | – | ≤ 30 | – | ≤ 50 | ≤ 30 | ≤ 50 |
| O=S(=O)(c1ccoc1)n1ccc(-c2ccc(F)c(F)c2)n1 [compound 92] | – | ≤ 30 | – | ≤ 50 | ≤ 30 | ≤ 50 |
| O=S(=O)(c1cccs1)n1ccc(-c2ccc(F)c(F)c2)n1 [compound 93] | – | ≤ 30 | – | ≤ 50 | ≤ 30 | ≤ 50 |
| O=S(=O)(c1cccs1)n1ccc(-c2cccc(F)c2)n1 [compound 96] | – | ≤ 30 | – | ≤ 50 | ≤ 30 | ≤ 50 |
| Cc1ccc(-c2ccn(S(=O)(=O)c3cccnc3)n2)cc1F [compound 97] | – | ≤ 30 | ≤ 50 | ≤ 50 | ≤ 30 | – |
| Cc1ccc(-c2ccn(S(=O)(=O)c3cccnc3)n2)cc1 [compound 99] | – | ≤ 30 | – | ≤ 50 | ≤ 30 | ≤ 50 |
